Patent US11135224B2, “Methods of sensitizing estrogen receptor positive (ER+) breast cancer cells to endocrine therapy” (New York University, priority 2018, dated 2021)

Assays:
[1] = system: ATF2 phosphorylation at Thr69/71 (target of RSK, JNK1, p38 MAPK) and eIF4B S422 (target of RSKs); assay: Immunoblot of ATF2 and eIF4B phosphorylation in TamR cells; format: cell-based, human; conditions: 10 μM for 6 hours
Method: (§1) Hsp70 (loading control). […] Cells were treated with DMSO, 1 μM 4-OH Tam, 4-OH Tam and CGP 57380 (10 μM), or 1 μM 4-OH Tam, CGP57380, and 20 nM RAD001 therapies 24 hours after plating. Treatment was changed every 72 hours. Colonies were scored after 10 days counting only >50 cells/colony. Results are representative of three independent experiments. SEM is shown. […] Results from three independent experiments. Error bars represent SEM (n.s.=not significant). […] Equal amounts of RNA were resolved by sucrose gradient centrifugation and ribosome profiles monitored by UV absorbance 254 nm. Results are representative images of two independent experiments.
Immunoblot Studies: In brief, cells were lysed in NP-40 buffer (50 mM HEPES, pH 7.0, 150 mM NaCl, 2 mM EDTA, 25 mM NaF, 25 mM β-glycerophosphate, 2 mM Na3VO4, 1% IGEPAL, and Complete Mini protease inhibitor cocktail tablet+/−EDTA; Roche) or RIPA lysis buffer (1% Triton X-100, 1% sodium deoxycholate, 0.1% SDS, 150 mM NaCl, 50 mM Tris, pH 7.4, 2 mM Na3VO4, 25 mM β-glycerophosphate, 15 mM NaF, and complete protease inhibitor mix; Roche) and lysate cleared by centrifugation at 13,000 rpm for 10 minutes at 4° C. Lysate protein concentration was determined for each sample using BCA assay. […] Quantitation was performed by determination of the integrated density of the bands using ImageJ software. […]

[2] = system: global protein synthesis in TamS and TamR cells; assay: [35S]-methionine metabolic labeling, overall protein synthesis; format: cell-based, human; conditions: 10 μM for 24 hours, [35S]-methionine labeling 30 minutes
Method: as §1
^35S-Methionine Metabolic Protein Labeling: Global protein synthesis was measured as previously described (Ramirez-Valle et al., “eIF4GI Links Nutrient Sensing by mTOR to Cell Proliferation and Inhibition of Autophagy,” J. Cell Biol. 181(2):293-307 (2008), which is incorporated herein by reference in its entirety). Cells (2×10^5) were seeded, in triplicate, into 6-well culture plates and allowed to adhere for 48-72 hours. Cells were labeled with 25 μCi ^355-methionine/cysteine protein labeling mix (PerkinElmer) for 30 minutes at 37° C. using DMEM without L-Methionine or L-Cysteine supplemented with 5% FBS. […] Protein concentration was measured by the BCA assay (Thermo Scientific). […]

[3] = system: RUNX2 protein; assay: RUNX2 protein immunoblot after CGP57380; format: cell-based, human; conditions: TamS and TamR cells, treated for 6 hours vs untreated
Method: The average of three studies is shown. The immunoblot is representative of three independent studies. […] Equal amounts of RNA were quantified by RT-qPCR and normalized to GAPDH using the −ΔΔCt method. An average of three studies is shown. […] Equal protein amounts were immunoblotted as shown. eEF2 was used as a loading control. […] Cells were treated with DMSO and 1 μM4-OHT and silenced for Runx2 or nonsilencing (NS). The results of three independent experiments are shown. […] Lines represent validated and predicted interactions. […] (**)P<0.01; (***)P<0.001 by t-test.
Immunoblot Studies: In brief, cells were lysed in NP-40 buffer (50 mM HEPES, pH 7.0, 150 mM NaCl, 2 mM EDTA, 25 mM NaF, 25 mM β-glycerophosphate, 2 mM Na3VO4, 1% IGEPAL, and Complete Mini protease inhibitor cocktail tablet+/−EDTA; Roche) or RIPA lysis buffer (1% Triton X-100, 1% sodium deoxycholate, 0.1% SDS, 150 mM NaCl, 50 mM Tris, pH 7.4, 2 mM Na3VO4, 25 mM β-glycerophosphate, 15 mM NaF, and complete protease inhibitor mix; Roche) and lysate cleared by centrifugation at 13,000 rpm for 10 minutes at 4° C. Lysate protein concentration was determined for each sample using BCA assay. […] Quantitation was performed by determination of the integrated density of the bands using ImageJ software.
The biological functions of mRNAs identified as highly eIF4E-dependent in tamoxifen-resistant cells were next assessed. […]

[4] = system: p38, JNK1, and RSKs; conditions: at 10 μM; cited from earlier work

Nc1ncnc2n[nH]c(Nc3ccc(F)cc3)c12 [CGP57380]
phosphorylation of ATF2 Thr69/71 and eIF4B S422 [1]: no change in phosphorylation | reduction in global protein synthesis [2]: 10% | RUNX2 protein levels [3]: reduced more than threefold | inhibitory activity on other families of related kinases (p38, JNK1, and RSKs) [4]: no inhibitory activity
